Data: PubChem BioAssay AID330 (DTP/NCI, 2004)
Values joined by “and” are separate entries in the source; they are usually repeats but may differ in a detail not shown here. Identical values can stand only once. Toxic doses and inconclusive results are not listed.

Tested on: P388 leukemia ip, CD2F1 mice, survival T/C
Assay: NCI In Vivo Anticancer Drug Screen. Data for tumor model P388 Leukemia (intraperitoneal) in CD2F1 (CDF1) mice
Settings: endpoint: median survival time, higher = longer survival
Outline: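 Mice carrying the transplanted tumor received test compound or vehicle. Survival was recorded in each group, and the value is the treated-group measurement divided by that of the vehicle-treated control group.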

[1] = dose: 50.0 mg/kg/injection, schedule: Q01DX009 (ip), vehicle: saline
[2] = dose: 100.0 mg/kg/injection, schedule: Q01DX009 (ip), vehicle: saline
[3] = dose: 25.0 mg/kg/injection, schedule: Q01DX009 (ip), vehicle: saline with Tween-80
[4] = dose: 50.0 mg/kg/injection, schedule: Q01DX009 (ip), vehicle: saline with Tween-80
[5] = dose: 6.25 mg/kg/injection, schedule: Q01DX005 (ip), vehicle: Klucel (hydroxypropylcellulose) (HPC)
[6] = dose: 50.0 mg/kg/injection, schedule: Q01DX009 (ip), vehicle: Klucel (hydroxypropylcellulose) (HPC)
[7] = dose: 100.0 mg/kg/injection, schedule: Q01DX009 (ip), vehicle: Klucel (hydroxypropylcellulose) (HPC)
[8] = dose: 200.0 mg/kg/injection, schedule: Q01DX009 (ip), vehicle: Klucel (hydroxypropylcellulose) (HPC)
[9] = dose: 100.0 mg/kg/injection, schedule: Q04DX003 (ip), vehicle: saline with Tween-80
[10] = dose: 200.0 mg/kg/injection, schedule: Q04DX003 (ip), vehicle: saline with Tween-80
[11] = dose: 400.0 mg/kg/injection, schedule: Q04DX003 (ip), vehicle: saline with Tween-80
[12] = dose: 50.0 mg/kg/injection, schedule: Q01DX005 (ip), vehicle: saline with Tween-80
[13] = dose: 100.0 mg/kg/injection, schedule: Q01DX005 (ip), vehicle: saline with Tween-80
[14] = dose: 200.0 mg/kg/injection, schedule: Q01DX005 (ip), vehicle: saline with Tween-80
[15] = dose: 200.0 mg/kg/injection, schedule: Q01DX009 (ip), vehicle: saline
[16] = dose: 60.0 mg/kg/injection, schedule: Q01DX005 (ip), vehicle: saline with Tween-80
[17] = dose: 120.0 mg/kg/injection, schedule: Q01DX005 (ip), vehicle: saline with Tween-80
[18] = dose: 240.0 mg/kg/injection, schedule: Q01DX005 (ip), vehicle: saline with Tween-80
[19] = dose: 100.0 mg/kg/injection, schedule: Q01DX009 (ip), vehicle: saline with Tween-80
[20] = dose: 200.0 mg/kg/injection, schedule: Q01DX009 (ip), vehicle: saline with Tween-80
[21] = dose: 3.13 mg/kg/injection, schedule: Q01DX009 (ip), vehicle: water
[22] = dose: 25.0 mg/kg/injection, schedule: Q01DX009 (ip), vehicle: water
[23] = dose: 50.0 mg/kg/injection, schedule: Q01DX005 (ip), vehicle: Klucel (hydroxypropylcellulose) (HPC)
[24] = dose: 100.0 mg/kg/injection, schedule: Q01DX005 (ip), vehicle: Klucel (hydroxypropylcellulose) (HPC)
[25] = dose: 200.0 mg/kg/injection, schedule: Q01DX005 (ip), vehicle: Klucel (hydroxypropylcellulose) (HPC)

O=C1NC(O)c2ccccc2O1 (stereo unspecified)
T/C [1]: 106 % of control | T/C [2]: 123 % of control

C[N+](C)=c1ccc2nc3ccc(N)cc3sc-2c1
T/C (dose: 3.13 mg/kg/injection, schedule: Q01DX009 (ip), vehicle: saline): 106 % of control | T/C (dose: 6.25 mg/kg/injection, schedule: Q01DX009 (ip), vehicle: saline with Tween-80): 87 % of control | T/C (dose: 6.25 mg/kg/injection, schedule: Q01DX009 (ip), vehicle: saline): 94 % of control | T/C (dose: 12.5 mg/kg/injection, schedule: Q01DX009 (ip), vehicle: saline): 95 % of control | T/C [3]: 102 % of control and 103 % of control | T/C (dose: 25.0 mg/kg/injection, schedule: Q01DX009 (ip), vehicle: saline): 107 % of control | T/C [4]: 95 % of control | T/C [1]: 104 % of control

CCCCc1ccc(N(C)C)cc1
T/C (dose: 12.5 mg/kg/injection, schedule: Q01DX009 (ip), vehicle: saline with Tween-80): 101 % of control | T/C [3]: 110 % of control | T/C [4]: 110 % of control

COc1ccc(-c2nn3c(=O)c(Cc4ccccc4)c(O)nc3nc2-c2ccccc2)cc1
T/C [5]: 103 % of control | T/C (dose: 12.5 mg/kg/injection, schedule: Q01DX005 (ip), vehicle: Klucel (hydroxypropylcellulose) (HPC)): 93 % of control

NC(CCC(N)C(=O)O)C(=O)O (stereo unspecified)
T/C (dose: 25.0 mg/kg/injection, schedule: Q01DX009 (ip), vehicle: Klucel (hydroxypropylcellulose) (HPC)): 97 % of control | T/C [6]: 93 % of control | T/C [7]: 87 % of control | T/C [8]: 86 % of control

CCOC(=O)C1CC1(C(=O)OCC)C(=O)OCC (stereo unspecified)
T/C [9]: 96 % of control | T/C [10]: 97 % of control | T/C [11]: 92 % of control

CN1CCC(O)CC1=O (stereo unspecified)
T/C [12]: 104 % of control | T/C [13]: 98 % of control | T/C [14]: 101 % of control

CCC1=C[C@H]2CN(CCc3c([nH]c4ccccc34)[C@@](C(=O)OC)(c3cc4c(cc3OC)N(C)[C@H]3[C@@](O)(C(=O)NCCSC)[C@H](O)[C@]5(CC)C=CCN6CC[C@]43[C@@H]65)C2)C1
T/C (dose: 0.5 mg/kg/injection, schedule: Q01DX001 (ip), vehicle: water): 117 % of control | T/C (dose: 2.0 mg/kg/injection, schedule: Q01DX001 (ip), vehicle: water): 118 % of control | T/C (dose: 16.0 mg/kg/injection, schedule: Q01DX001 (ip), vehicle: water): 154 % of control and 168 % of control | T/C (dose: 32.0 mg/kg/injection, schedule: Q01DX001 (ip), vehicle: water): 191 % of control

O=C(O)CC12CCC(CC1)OC2=O
T/C [1]: 100 % of control | T/C [2]: 106 % of control | T/C [15]: 97 % of control

CCOC(=O)C1=C(C(=O)c2ccc(OC)cc2)C(c2ccc(Cl)cc2Cl)C(C(=O)c2ccc(OC)cc2)=C(C(=O)OCC)N1
T/C (dose: 30.0 mg/kg/injection, schedule: Q01DX005 (ip), vehicle: saline with Tween-80): 96 % of control | T/C [16]: 91 % of control and 94 % of control | T/C [17]: 101 % of control | T/C [18]: 92 % of control

CSc1nc(SC)c2c(CN=[N+]=[N-])c(Br)n(Cc3ccccc3)c2n1
T/C (dose: 3.13 mg/kg/injection, schedule: Q01DX001 (ip), vehicle: saline with Tween-80): 98 % of control | T/C (dose: 6.25 mg/kg/injection, schedule: Q01DX001 (ip), vehicle: saline with Tween-80): 86 % of control | T/C (dose: 25.0 mg/kg/injection, schedule: Q01DX001 (ip), vehicle: saline with Tween-80): 86 % of control

[CH3][Ga]([CH3])[n]1cccn1
T/C (dose: 3.12 mg/kg/injection, schedule: Q01DX005 (ip), vehicle: Klucel (hydroxypropylcellulose) (HPC)): 100 % of control | T/C [5]: 111 % of control

Nc1ncnc2nc(-c3ccccc3)[nH]c12
T/C [16]: 102 % of control | T/C [17]: 100 % of control | T/C [18]: 105 % of control

Nc1c(Br)cc2c(c1Br)Cc1cc(Br)ccc1-2
T/C [9]: 104 % of control | T/C [10]: 109 % of control | T/C [11]: 90 % of control

COC(=O)COC(=O)C1C(C(N)=O)N(CC(=O)OC)CCN1CC(=O)OC (stereo unspecified)
T/C [12]: 103 % of control | T/C [13]: 103 % of control | T/C [14]: 103 % of control

COc1cccc(/C=N\NC(=O)C(C)SC(C)C(=O)N/N=C/c2cccc(OC)c2)c1 (stereo unspecified)
T/C [9]: 104 % of control | T/C [10]: 90 % of control | T/C [11]: 100 % of control

CCCCN(CCNc1ccc(C)c2sc3ccccc3c(=O)c12)CC(C)O (stereo unspecified)
T/C [12]: 101 % of control | T/C [13]: 104 % of control | T/C [14]: 101 % of control

CS(=O)(=O)OCC#CCOS(C)(=O)=O
T/C (dose: 1.56 mg/kg/injection, schedule: Q01DX009 (ip), vehicle: Klucel (hydroxypropylcellulose) (HPC)): 109 % of control | T/C (dose: 3.12 mg/kg/injection, schedule: Q01DX009 (ip), vehicle: Klucel (hydroxypropylcellulose) (HPC)): 120 % of control

COC(=O)/C(Br)=C/N(Cc1ccccc1)Cc1ccccc1
T/C [19]: 110 % of control | T/C [9]: 95 % of control | T/C [20]: 100 % of control | T/C [10]: 95 % of control | T/C (dose: 400.0 mg/kg/injection, schedule: Q01DX009 (ip), vehicle: saline with Tween-80): 110 % of control | T/C [11]: 95 % of control

CC(/C=N/NC1=NCCN1)=N/NC1=NCCN1
T/C (dose: 50.0 mg/kg/injection, schedule: Q01DX005 (ip), vehicle: saline): 102 % of control | T/C (dose: 100.0 mg/kg/injection, schedule: Q01DX005 (ip), vehicle: saline): 98 % of control | T/C (dose: 200.0 mg/kg/injection, schedule: Q01DX005 (ip), vehicle: saline): 99 % of control

O=S(=O)(O)c1ccccc1N=Nc1ccc(N(CCCl)CCCl)cc1
T/C [19]: 156 % of control

O=C(O)c1cc([N+](=O)[O-])cc([N+](=O)[O-])c1Sc1ncccn1
T/C [1]: 96 % of control | T/C [2]: 100 % of control | T/C [15]: 101 % of control

Cc1cc(=O)oc2cc(NC(=O)C(CCCN=C(N)N)NC(=O)OCc3ccccc3)ccc12 (stereo unspecified)
T/C [12]: 97 % of control | T/C [13]: 98 % of control | T/C [14]: 94 % of control

O=C1/C(=C/c2cccnc2)CCc2ccccc21
T/C [3]: 104 % of control | T/C [6]: 116 % of control | T/C [4]: 108 % of control | T/C [7]: 102 % of control | T/C [19]: 105 % of control | T/C [8]: 109 % of control | T/C [20]: 95 % of control

c1cc2c3c(c1)c1cc4c(cc1c[n+]3CCC2)OCO4
T/C [21]: 110 % of control | T/C [22]: 119 % of control and 120 % of control

O=C(Nc1cc(Nc2ccc(NC(=O)c3ccccc3)c3c2C(=O)c2ccccc2C3=O)cc2c1C(=O)c1ccccc1C2=O)c1ccccc1
T/C [23]: 103 % of control | T/C [24]: 103 % of control | T/C [25]: 97 % of control

OCC1OC(n2cc(I)c3c2ncn2nnnc32)C(O)C1O (stereo unspecified)
T/C [21]: 99 % of control | T/C (dose: 6.25 mg/kg/injection, schedule: Q01DX009 (ip), vehicle: water): 100 % of control | T/C (dose: 12.5 mg/kg/injection, schedule: Q01DX009 (ip), vehicle: water): 97 % of control | T/C [22]: 97 % of control | T/C (dose: 50.0 mg/kg/injection, schedule: Q01DX009 (ip), vehicle: water): 89 % of control

O=C1CNC(=O)C(Cc2c[nH]c3ccccc23)N1 (stereo unspecified)
T/C [1]: 100 % of control | T/C [2]: 96 % of control | T/C [15]: 100 % of control

CCCC1(c2ccccc2)CC(=O)NC1=O (stereo unspecified)
T/C (dose: 60.0 mg/kg/injection, schedule: Q01DX005 (ip), vehicle: saline): 98 % of control | T/C (dose: 120.0 mg/kg/injection, schedule: Q01DX005 (ip), vehicle: saline): 98 % of control | T/C (dose: 240.0 mg/kg/injection, schedule: Q01DX005 (ip), vehicle: saline): 102 % of control

N#CCCN1CCC(N)=NC1=NC#N
T/C (dose: 25.0 mg/kg/injection, schedule: Q01DX005 (ip), vehicle: Klucel (hydroxypropylcellulose) (HPC)): 100 % of control | T/C [23]: 112 % of control | T/C [24]: 94 % of control | T/C [25]: 96 % of control
